Molecules are shown by their SMILES. Read-outs that look alike come from different tables or passages of the source. Bounds are passed on as bounds.

Assay type in all cases: in vivo
In assay [1] the test system is Puccinia triticina; Synonym: Puccinia recondite f. sp. tritici. The experiment in a line: Wheat brown rust (PUCCRT) disease control on wheat seedlings. To be noted: Puccinia triticina; for pest or weed control at 121.5 g/ha: low volume application, 121.5 g/H. Summed up: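 Acetone solutions diluted in nine volumes of water with 110 ppm Triton X-100 sprayed to run-off on first-leaf Yuma wheat seedlings (track spray: EC with 0.1% Trycol 5941). Puccinia triticina spores inoculated before or after treatment; overnight dark dew at 22° C., 100% RH, then greenhouse at 24° C. for disease development.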

Assay [2] has as its system Blumeria graminis f. sp. tritici; Synonym: Erysiphe graminis f. sp. tritici. The experiment in a line: Wheat powdery mildew (ERYSGT) disease control. The following applies: 24 h, 1 Day Protectant, high volume, read-out: Disease Control ERYSGT 1 DP. As to the method:
Technical grades of materials were dissolved in acetone, which were then mixed with nine volumes of water containing 110 ppm Triton X-100. The fungicide solutions were applied onto wheat seedlings using an automated booth sprayer to run-off. All sprayed plants were allowed to air dry prior to further handling. All fungicides were evaluated using the aforementioned method for their activity vs. all target diseases. Wheat leaf blotch and brown rust activity were also evaluated using track spray applications, in which case the fungicides were formulated as EC formulations, containing 0.1% Trycol 5941 in the spray solutions. Wheat plants (variety Yuma) were grown from seed in a greenhouse in 50% mineral soil/50% soil-less Metro mix until the first leaf was fully emerged, with 7-10 seedlings per pot. These plants were inoculated by dusting with infected stock plants 24 hr after fungicide treatments. After inoculation the plants were kept in a greenhouse set at 20° C. for disease to develop. Fungicide formulation, application and disease assessment on the sprayed leaves followed the procedures as described in the Example A.

Assay [3] concerns Glomerella lagenarium; Anamorph: Colletotrichum lagenarium. The experiment in a line: Cucumber anthracnose (COLLLA) disease control. To be noted: Colletotrichum orbiculare, 24 h, 1 Day Protectant, high volume, read-out: Disease Control COLLLA 1 DP. As to the method: Technical grades of materials were dissolved in acetone, which were then mixed with nine volumes of water containing 110 ppm Triton X-100. The fungicide solutions were applied onto wheat seedlings using an automated booth sprayer to run-off. All sprayed plants were allowed to air dry prior to further handling. All fungicides were evaluated using the aforementioned method for their activity vs. all target diseases. Wheat leaf blotch and brown rust activity were also evaluated using track spray applications, in which case the fungicides were formulated as EC formulations, containing 0.1% Trycol 5941 in the spray solutions. Cucumber seedlings (variety Bush Pickle) were propagated in soil-less Metro mix, with each pot having one plant, and used in the test when 12 to 14 days old. Test plants were inoculated with an aqueous spore suspension of Colletotrichum lagenarium 24 hr after fungicide treatments. After inoculation the plants were kept in a dew room at 22° C. with 100% relative humidity for 48 hr to permit spores to germinate and infect the leaf. The plants were then transferred to a growth room set at 22° C. for disease to develop. Fungicide formulation, application and disease assessment on the sprayed leaves followed the procedures as described in the Example A.

The next assay concerns Alternaria solani. The experiment in a line: Tomato early blight (ALTESO) disease control. To be noted: 24 h, 1 Day Protectant, high volume, read-out: Disease Control ALTESO 1 DP. As to the method:
Technical grades of materials were dissolved in acetone, which were then mixed with nine volumes of water containing 110 ppm Triton X-100. The fungicide solutions were applied onto wheat seedlings using an automated booth sprayer to run-off. All sprayed plants were allowed to air dry prior to further handling. All fungicides were evaluated using the aforementioned method for their activity vs. all target diseases. Wheat leaf blotch and brown rust activity were also evaluated using track spray applications, in which case the fungicides were formulated as EC formulations, containing 0.1% Trycol 5941 in the spray solutions. Tomato plants (variety Outdoor girl) were propagated in soil-less Metro mix, with each pot having one plant, and used when 12 to 14 days old. Test plants were inoculated with an aqueous spore suspension of Alternaria solani 24 hr after fungicide treatments. After inoculation the plants were kept in 100% relative humidity (one day in a dark dew chamber followed by two to three days in a lighted dew chamber at 20° C.) to permit spores to germinate and infect the leaf. The plants were then transferred to a growth room at 22° C. for disease to develop. Fungicide formulation, application and disease assessment on the sprayed leaves followed the procedures as described in the Example A.

Another assay concerns Rhyncosporium secalis. The experiment in a line: Barley scald (RHYNSE) disease control. To be noted: 24 h, High volume application, 1 Day Protectant, read-out: RHYNSE 1 DP disease control. How it is done:
Technical grades of materials were dissolved in acetone, which were then mixed with nine volumes of water containing 110 ppm Triton X-100. The fungicide solutions were applied onto wheat seedlings using an automated booth sprayer to run-off. All sprayed plants were allowed to air dry prior to further handling. All fungicides were evaluated using the aforementioned method for their activity vs. all target diseases. Wheat leaf blotch and brown rust activity were also evaluated using track spray applications, in which case the fungicides were formulated as EC formulations, containing 0.1% Trycol 5941 in the spray solutions. Barley seedlings (variety Harrington) were propagated in soil-less Metro mix, with each pot having 8 to 12 plants, and used in the test when first leaf was fully emerged. Test plants were inoculated by an aqueous spore suspension of Rhyncosporium secalis 24 hr after fungicide treatments. After inoculation the plants were kept in a dew room at 20° C. with 100% relative humidity for 48 hr. The plants were then transferred to a greenhouse set at 20° C. for disease to develop. Fungicide formulation, application and disease assessment on the sprayed leaves followed the procedures as described in the Example A.

The mark [4] stands for this setting: 24 h, High volume application, 1 Day Protectant, read-out: PUCCRT 1DP disease control.
Where [5] appears, read: 72 h, High volume application, 3 Day Curative, read-out: PUCCRT 3DC disease control.
[6] abbreviates: 24 h, Wheat Brown Rust, 1 Day Protectant, read-out: Disease Control PUCCRT 1 DP 121.5 g/H.
Setting [7] is: 72 h, Wheat Brown Rust, 3 Day Curative, read-out: Disease Control PUCCRT 3 DC 121.5 g/H.

Regarding `COc1ccnc(C(=O)N[C@H]2CCC[C@H](OCC(C)C)[C@@H](Oc3ccccc3)[C@H](C)OC2=O)c1OCOC(C)=O` [F26], the pest or weed control at 100 ppm lay in the range of 80 to 100% in assay [1] (setting [4]), 80 to 100% in assay [1] (setting [5]), 0 to 80% in assay [2] and 80 to 100% in assay [3].
In the case of `COc1ccnc(C(=O)N[C@H]2CCC[C@H](OCC(C)C)[C@@H](OCC(C)C)[C@H](C)OC2=O)c1OCOC(C)=O` [F29], the pest or weed control at 100 ppm (in assay [1] (setting [4]); in assay [1] (setting [5]); in assay [2]; with Alternaria solani; in assay [3]) was 80 to 100% throughout.
On to `COc1ccnc(C(=O)N[C@H]2CCC[C@H](OCc3ccccc3)[C@@H](OCc3ccccc3)[C@H](C)OC2=O)c1OCOC(C)=O` [F30], for which the pest or weed control at 100 ppm was 80 to 100% in assay [1] (setting [4]); 80 to 100% in assay [1] (setting [5]); under 0% in assay [2]; 0 to 80% in the assay on Alternaria solani; 80 to 100% in assay [3].
Regarding `COc1ccnc(C(=O)N[C@H]2CCC[C@H](OCc3ccccc3)[C@@H](Oc3ccccc3)[C@H](C)OC2=O)c1OCOC(C)=O` [F31], the pest or weed control at 100 ppm in assay [1] (setting [4]) fell in the range of 80 to 100%; in assay [1] (setting [5]) it was 80 to 100%; in assay [2], 0 to 80%; in the assay on Alternaria solani it was 0 to 80%; in assay [3], 80 to 100%.
Turning to `COc1ccnc(C(=O)N[C@H]2CCC[C@H](OCC(C)C)[C@@H](Oc3ccccc3)[C@H](C)OC2=O)c1OCOC(=O)C(C)C` [F34], the pest or weed control at 100 ppm lay within 80 to 100% in assay [1] (setting [4]); 80 to 100% in assay [1] (setting [5]); 0 to 80% in assay [2]; 0 to 80% with Alternaria solani; 80 to 100% in assay [3].
With `COc1ccnc(C(=O)N[C@H]2CCC[C@H](Oc3ccccc3)[C@@H](OCC(C)C)[C@H](C)OC2=O)c1OCOC(=O)C(C)C` [F35], the pest or weed control at 100 ppm in assay [1] (setting [4]) fell in the range of 80 to 100%; in assay [1] (setting [5]), 80 to 100%; in assay [2], 0 to 80%; in the assay on Alternaria solani it was 80 to 100%; in assay [3] it was 80 to 100%.
On to `COc1ccnc(C(=O)N[C@H]2CCC[C@H](Oc3ccccc3)[C@@H](Oc3ccccc3)[C@H](C)OC2=O)c1OCOC(=O)C(C)C` [F36], for which the pest or weed control at 100 ppm in assay [1] (setting [4]) is 80 to 100%; in assay [1] (setting [5]) it was 80 to 100%; in assay [2] it was under 0%; in the assay with Alternaria solani, 80 to 100%; in assay [3], 80 to 100%.
As to `COc1ccnc(C(=O)N[C@H]2CCC[C@H](OCC(C)C)[C@@H](OCC(C)C)[C@H](C)OC2=O)c1OCOC(=O)C(C)C` [F37], the pest or weed control at 100 ppm in assay [1] (setting [4]) lay within 80 to 100%; in assay [1] (setting [5]), 80 to 100%; in assay [2], 0 to 80%; with Alternaria solani, 80 to 100%; in assay [3] it was 80 to 100%.
`COc1ccnc(C(=O)N[C@H]2CCC[C@H](OCC(C)C)[C@@H](OC3CCCC3)[C@H](C)OC2=O)c1OCOC(=O)C(C)C` [F38]: the pest or weed control at 100 ppm in assay [1] (setting [4]) fell in the range of 80 to 100%; in assay [1] (setting [5]), 80 to 100%; in assay [2], 0 to 80%; in the assay with Alternaria solani, 80 to 100%; in assay [3], 80 to 100%.
In the case of `COc1ccnc(C(=O)N[C@H]2CCC[C@H](Oc3ccccc3)[C@@H](OC(=O)C3CC3)[C@H](C)OC2=O)c1OC(C)=O` [F242], the pest or weed control at 100 ppm in assay [1] (24 h, Wheat Brown Rust, 1 Day Protectant, high volume application, read-out: Disease Control PUCCRT 1 DP 100 ppm) was 80 to 100%; in assay [1] (72 h, Wheat Brown Rust, 3 Day Curative, high volume application, read-out: Disease Control PUCCRT 3 DC 100 ppm), 80 to 100%; with Rhyncosporium secalis, under 0%; in the assay on Alternaria solani it was under 0%; in assay [3] it was 80 to 100%. Further, the pest or weed control at 121.5 g/ha was in the range of 80 to 100% in assay [1] (setting [6]) and 0 to 80% in assay [1] (setting [7]).
Turning to `C=C(C)CO[C@H]1CCC[C@H](NC(=O)c2nccc(OC)c2OCOC(C)=O)C(=O)O[C@@H](C)[C@@H]1OC` [F250], the pest or weed control at 121.5 g/ha in assay [1] (setting [6]) lay within 0 to 80%; in assay [1] (setting [7]) it was 80 to 100%. Besides, the pest or weed control at 100 ppm (in the assay on Rhyncosporium secalis; with Alternaria solani; in assay [3]) was 0 to 80% throughout.
Consider `COc1ccnc(C(=O)N[C@H]2CCC[C@H](OCC(C)C)[C@@H](OC)[C@H](C)OC2=O)c1OCOC(C)=O` [F251], for which the pest or weed control at 121.5 g/ha in assay [1] (setting [6]) and in assay [1] (setting [7]) was 80 to 100% in each case. Further, the pest or weed control at 100 ppm lay in the range of 0 to 80% with Rhyncosporium secalis, 0 to 80% in the assay on Alternaria solani and 80 to 100% in assay [3].
Regarding `COc1ccnc(C(=O)N[C@H]2CCC[C@H](Oc3ccccc3)[C@@H](OC)[C@H](C)OC2=O)c1OCOC(C)=O` [F252], the pest or weed control at 121.5 g/ha in assay [1] (setting [6]) and in assay [1] (setting [7]) was 80 to 100% each time. The results for the pest or weed control at 100 ppm (in the assay on Rhyncosporium secalis; in the assay with Alternaria solani; in assay [3]) were 80 to 100%, 0 to 80% and 80 to 100%, respectively.
Turning to `C=C(C)CO[C@H]1CCC[C@H](NC(=O)c2nccc(OC)c2OCOC(=O)C(C)C)C(=O)O[C@@H](C)[C@@H]1OC` [F253], the pest or weed control at 121.5 g/ha in assay [1] (setting [6]) and in assay [1] (setting [7]) was 80 to 100% each time. Moreover, the pest or weed control at 100 ppm in the assay with Rhyncosporium secalis fell in the range of 0 to 80%; in the assay on Alternaria solani, 0 to 80%; in assay [3], 80 to 100%.
For the compound `COc1ccnc(C(=O)N[C@H]2CCC[C@H](OCC(C)C)[C@@H](OC)[C@H](C)OC2=O)c1OCOC(=O)C(C)C` [F254], the pest or weed control at 121.5 g/ha in assay [1] (setting [6]) and in assay [1] (setting [7]) was 80 to 100% in each case. In addition, the pest or weed control at 100 ppm was 80 to 100% with Rhyncosporium secalis, 0 to 80% with Alternaria solani and 80 to 100% in assay [3].
`COc1ccnc(C(=O)N[C@H]2CCC[C@H](Oc3ccccc3)[C@@H](OC)[C@H](C)OC2=O)c1OCOC(=O)C(C)C` [F255]: the pest or weed control at 121.5 g/ha in assay [1] (setting [6]) and in assay [1] (setting [7]) was 80 to 100% throughout. Also, the figures for the pest or weed control at 100 ppm (in the assay on Rhyncosporium secalis; in the assay on Alternaria solani; in assay [3]) were 80 to 100%, 0 to 80% and 80 to 100%, respectively.
